# Data from EP4122499A1, “FIBROBLAST ACTIVATION PROTEIN INHIBITORS AND USE THEREOF” (3B Pharmaceuticals GmbH, priority 2021, dated 2023).
# Assays:
# Type in all cases: biochemical
# recombinant human PREP = target: T1, recombinant human PREP (Homo sapiens, UniProt P48147); assay: PREP protease activity assay; details: 50 µM Z-GP-AMC substrate
# T1 construct: purchased R&D systems 4308-SE
# T1 sequence (P48147 1-710): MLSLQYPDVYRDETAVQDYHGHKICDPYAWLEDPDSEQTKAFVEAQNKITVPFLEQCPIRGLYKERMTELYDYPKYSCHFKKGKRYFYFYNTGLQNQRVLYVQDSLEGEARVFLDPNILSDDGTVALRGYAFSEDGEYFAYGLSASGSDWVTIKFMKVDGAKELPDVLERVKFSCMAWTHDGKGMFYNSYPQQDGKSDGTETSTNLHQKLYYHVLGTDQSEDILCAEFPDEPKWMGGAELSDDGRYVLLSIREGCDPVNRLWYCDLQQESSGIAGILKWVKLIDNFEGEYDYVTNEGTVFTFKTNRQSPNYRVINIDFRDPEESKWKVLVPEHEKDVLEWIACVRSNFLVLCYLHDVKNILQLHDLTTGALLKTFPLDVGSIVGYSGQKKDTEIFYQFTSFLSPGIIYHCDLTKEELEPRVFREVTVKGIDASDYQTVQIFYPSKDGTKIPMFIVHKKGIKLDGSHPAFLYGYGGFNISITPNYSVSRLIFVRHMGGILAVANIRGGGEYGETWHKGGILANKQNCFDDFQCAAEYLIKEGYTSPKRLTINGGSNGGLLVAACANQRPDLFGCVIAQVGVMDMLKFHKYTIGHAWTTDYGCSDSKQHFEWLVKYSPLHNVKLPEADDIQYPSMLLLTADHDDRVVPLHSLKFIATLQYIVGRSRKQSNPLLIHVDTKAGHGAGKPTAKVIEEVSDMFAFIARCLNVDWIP
# Description: (§1) The PREP activity assay was performed using the FACS buffer (PBS including 1% FBS, Sigma-Aldrich, Cat# D8537). […] The DPP4 activity assay was performed in DPP assay buffer (25 mM Tris, pH 8.0).
# (§2) Four parameter logistic (4PL) curve fitting and pIC50 calculations were performed using ActivityBase software.
# Recombinant human DPP4 = target: T2, Recombinant human DPP4 (Homo sapiens, UniProt P27487); assay: DPP4 protease activity assay; details: 20 µM GP-AMC substrate; for IC50: read-out: pIC50 (DPP4) (converted)
# T2 construct: purchased R&D systems 9168-SE
# Description: as §1, §2
# Recombinant mouse FAP = target: T3, Recombinant mouse FAP (Mus musculus, UniProt P97321); assay: FRET-based FAP protease activity assay (mouse); details: FRET-peptide substrate, 37°C; for IC50: read-out: pIC50 (mouseFAP) (converted)
# T3 construct: purchased R&D systems 8647-SE
# T3 sequence (P97321 1-761): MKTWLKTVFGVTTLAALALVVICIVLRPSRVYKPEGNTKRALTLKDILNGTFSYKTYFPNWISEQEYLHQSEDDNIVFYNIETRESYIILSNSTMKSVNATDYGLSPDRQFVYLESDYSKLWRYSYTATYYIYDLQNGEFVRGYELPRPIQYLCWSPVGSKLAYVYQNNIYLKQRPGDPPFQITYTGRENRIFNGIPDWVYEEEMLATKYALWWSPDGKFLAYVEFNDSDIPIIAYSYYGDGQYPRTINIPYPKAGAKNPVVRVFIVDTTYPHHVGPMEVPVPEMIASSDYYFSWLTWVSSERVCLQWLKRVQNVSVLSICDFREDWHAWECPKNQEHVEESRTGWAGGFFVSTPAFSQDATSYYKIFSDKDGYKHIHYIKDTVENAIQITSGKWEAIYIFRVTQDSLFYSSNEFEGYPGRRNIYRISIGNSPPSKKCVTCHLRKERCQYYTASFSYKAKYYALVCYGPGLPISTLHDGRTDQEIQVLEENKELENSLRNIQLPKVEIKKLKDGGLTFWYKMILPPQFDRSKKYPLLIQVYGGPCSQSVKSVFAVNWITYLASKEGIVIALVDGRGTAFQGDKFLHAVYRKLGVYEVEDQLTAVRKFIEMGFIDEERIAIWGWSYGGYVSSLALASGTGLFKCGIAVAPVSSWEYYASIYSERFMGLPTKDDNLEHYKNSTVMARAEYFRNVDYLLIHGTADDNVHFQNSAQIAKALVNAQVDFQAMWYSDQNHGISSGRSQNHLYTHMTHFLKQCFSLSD
# Description: In order to determine the inhibitory activity a FRET-based FAP protease activity assay was established.
# 25 µL of a 30 µM substrate solution, diluted in assay buffer, was added. […] Four parameter logistic (4PL) curve fitting and pIC50 calculations were performed using ActivityBase software.
# T2 sequence (P27487 whole entry): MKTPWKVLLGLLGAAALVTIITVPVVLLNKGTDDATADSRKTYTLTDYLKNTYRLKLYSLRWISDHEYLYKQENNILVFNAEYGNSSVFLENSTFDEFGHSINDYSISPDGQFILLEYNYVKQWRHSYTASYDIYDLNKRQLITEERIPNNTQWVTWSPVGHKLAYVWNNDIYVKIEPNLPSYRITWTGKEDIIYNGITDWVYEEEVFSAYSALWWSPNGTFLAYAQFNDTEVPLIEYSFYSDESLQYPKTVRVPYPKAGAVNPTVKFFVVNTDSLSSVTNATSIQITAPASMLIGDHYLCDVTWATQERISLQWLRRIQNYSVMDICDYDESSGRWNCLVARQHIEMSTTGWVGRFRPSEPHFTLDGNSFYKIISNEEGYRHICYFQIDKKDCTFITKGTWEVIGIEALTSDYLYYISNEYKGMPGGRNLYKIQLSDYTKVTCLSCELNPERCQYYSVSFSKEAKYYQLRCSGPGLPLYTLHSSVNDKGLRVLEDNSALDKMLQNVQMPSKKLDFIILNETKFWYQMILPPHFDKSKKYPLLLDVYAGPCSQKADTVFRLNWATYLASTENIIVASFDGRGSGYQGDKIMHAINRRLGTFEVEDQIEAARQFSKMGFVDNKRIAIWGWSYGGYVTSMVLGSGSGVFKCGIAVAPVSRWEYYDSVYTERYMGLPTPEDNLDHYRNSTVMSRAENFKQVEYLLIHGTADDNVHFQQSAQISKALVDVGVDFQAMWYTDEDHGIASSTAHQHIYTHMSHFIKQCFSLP
Structure (SMILES),IC50 (recombinant human PREP),IC50 (Recombinant human DPP4),pIC50 (PREP) (recombinant human PREP),pIC50 (DPP4) (Recombinant human DPP4),pIC50 (mouseFAP) (Recombinant mouse FAP),IC50 (Recombinant mouse FAP)
O=C(NCC(=O)N1CCC[C@H]1C(=O)c1ncco1)c1ccnc2ccccc12 [drawing 297],0.631 nM,> 1000 nM,,,,
O=C(O)CN1CCN(CC(=O)O)CCN(CC(=O)N2CCN(CCNC(=O)c3ccc(-c4ccc5c(C(=O)NCC(=O)N6CCC[C@H]6C(=O)c6nc7ccccc7o6)ccnc5c4)cc3)CC2)CCN(CC(=O)O)CC1 [drawing 355],,,8.7,<6,8.8,
CS(=O)(=O)c1cccc(-c2ccc3c(C(=O)NCC(=O)N4CC(F)(F)C[C@H]4C#N)ccnc3c2)c1 [drawing 289],> 1000 nM,> 1000 nM,,,,1.26 nM
CS(=O)(=O)c1cccc(-c2ccc3nccc(C(=O)NCC(=O)N4CC(F)(F)C[C@H]4C#N)c3c2)c1 [drawing 288],> 1000 nM,794 nM,,,,1 nM
CS(=O)(=O)c1ccc(-c2ccc3c(C(=O)NCC(=O)N4CCC[C@H]4C#N)ccnc3c2)cc1 [drawing 290],794 nM,> 1000 nM,,,,
N#C[C@@H]1CCCN1C(=O)CNC(=O)c1ccnc2ccc(-c3ccc(C(=O)NCCCNC(=O)CN4CCN(CC(=O)O)CCN(CC(=O)O)CCN(CC(=O)O)CC4)cc3)cc12,,,,<6,9,
O=C(O)CN1CCN(CC(=O)O)CCN(CC(=O)N2CCN(CCCOc3ccc4nccc(C(=O)NCC(=O)N5C[C@@H](F)C[C@H]5C(=O)c5nc6ccccc6o5)c4c3)CC2)CCN(CC(=O)O)CC1 [drawing 358],,,7.8,<6,8.5,
CS(=O)(=O)c1cccc(-c2ccc3c(C(=O)NCC(=O)N4CCC[C@H]4C#N)ccnc3c2)c1,> 1000 nM,> 1000 nM,,,,
O=C(O)CN1CCN(CC(=O)O)CCN(CC(=O)NCCCNC(=O)c2ccc(-c3ccc4nccc(C(=O)NCC(=O)N5CCC[C@H]5B(O)O)c4c3)cc2)CCN(CC(=O)O)CC1,,,8.2,<6,8.5,
N#C[C@@H]1CC(F)(F)CN1C(=O)CNC(=O)c1ccnc2ccc(-c3ccc(C(=O)NCCCNC(=O)CN4CCN(CC(=O)O)CCN(CC(=O)O)CCN(CC(=O)O)CC4)cc3)cc12,,,,<6,9.2,
N#C[C@@H]1CC(F)(F)CN1C(=O)CNC(=O)c1ccnc2ccc(-c3ccc(S(=O)(=O)CCCNC(=O)CN4CCN(CC(=O)O)CCN(CC(=O)O)CCN(CC(=O)O)CC4)cc3)cc12,,,<6,6.7,9,
N#C[C@@H]1CC(F)(F)CN1C(=O)CNC(=O)c1ccnc2ccc(-c3ccc(C(=O)NCCN4CCN(C(=O)CN5CCN(CC(=O)O)CCN(CC(=O)O)CCN(CC(=O)O)CC5)CC4)cc3)cc12,,,<6,<6,8.9,
CS(=O)(=O)c1ccc(-c2ccc3nccc(C(=O)NCC(=O)N4CCC[C@H]4C#N)c3c2)cc1,> 1000 nM,> 1000 nM,,,,
N#C[C@@H]1CC(F)(F)CN1C(=O)CNC(=O)c1ccnc2ccc(-c3ccc(C(=O)NCCCNC(=O)CN4CCN(CC(=O)O)CCN(CC(=O)O)CCN(CC(=O)O)CC4)nc3)cc12,,,<6,<6,8.8,

# Next, values leading:
IC50 (recombinant human PREP),IC50 (Recombinant human DPP4),pIC50 (PREP) (recombinant human PREP),pIC50 (DPP4) (Recombinant human DPP4),pIC50 (mouseFAP) (Recombinant mouse FAP),IC50 (Recombinant mouse FAP),Structure (SMILES)
> 1000 nM,> 1000 nM,,,,,CS(=O)(=O)c1cccc(-c2ccc3nccc(C(=O)NCC(=O)N4CCC[C@H]4C#N)c3c2)c1
,,6.7,<6,8.3,,O=C(O)CN1CCN(CC(=O)O)CCN(CC(=O)N2CCN(CCCOc3ccc4nccc(C(=O)NCC(=O)N5CC(F)(F)C[C@H]5C(=O)c5nc6ccccc6o5)c4c3)CC2)CCN(CC(=O)O)CC1
1 nM,> 1000 nM,,,,2 nM,O=C(NCC(=O)N1CCC[C@H]1C(=O)c1nc2ccccc2o1)c1ccnc2ccccc12
,,7.9,<6,7.8,,O=C(O)CN1CCN(CC(=O)O)CCN(CC(=O)N2CCN(CCNC(=O)c3ccc(-c4ccc5nccc(C(=O)NCC(=O)N6CCC[C@H]6C(=O)c6nc7ccccc7o6)c5c4)cn3)CC2)CCN(CC(=O)O)CC1 [drawing 361]
,,8.4,<6,8.9,,O=C(O)CN1CCN(CC(=O)O)CCN(CC(=O)N2CCN(CCNC(=O)c3cccc(-c4ccc5c(C(=O)NCC(=O)N6CCC[C@H]6C(=O)c6nc7ccccc7o6)ccnc5c4)c3)CC2)CCN(CC(=O)O)CC1 [drawing 352]
,,8.2,<6,8.7,,O=C(O)CN1CCN(CC(=O)O)CCN(CC(=O)NCCCNC(=O)c2ccc(-c3ccc4nccc(C(=O)NCC(=O)N5CCC[C@H]5C(=O)c5nc6ccccc6o5)c4c3)cc2)CCN(CC(=O)O)CC1
> 1000 nM,> 1000 nM,,,,0.794 nM,CS(=O)(=O)c1ccc(-c2ccc3nccc(C(=O)NCC(=O)N4CC(F)(F)C[C@H]4C#N)c3c2)cc1
1.26 nM,> 1000 nM,,,,3.98 nM,CC(C)(C)c1nnc(C(=O)[C@@H]2CCCN2C(=O)CNC(=O)c2ccnc3ccccc23)o1
,,7.3,<6,7.9,,O=C(O)CN1CCN(CC(=O)O)CCN(CC(=O)N2CCN(CCNC(=O)c3ccc(-c4ccc5nccc(C(=O)NCC(=O)N6C[C@@H](F)C[C@H]6C(=O)c6nc7ccccc7o6)c5c4)cc3)CC2)CCN(CC(=O)O)CC1 [drawing 360]
15.8 nM,> 1000 nM,,,,,O=C(NCC(=O)N1CCC[C@H]1C(=O)c1nc2ccccc2s1)c1ccnc2ccccc12
,,,<6,8.8,,N#C[C@@H]1CC(F)(F)CN1C(=O)CNC(=O)c1cc[n+]([O-])c2ccc(OCCCN3CCN(C(=O)CN4CCN(CC(=O)O)CCN(CC(=O)O)CCN(CC(=O)O)CC4)CC3)cc12
25.1 nM,> 1000 nM,,,,,O=C(NCC(=O)N1CCC[C@H]1C(=O)c1nccs1)c1ccnc2ccccc12
,,8.2,<6,8.1,,O=C(O)CN1CCN(CC(=O)O)CCN(CC(=O)N2CCN(CCNC(=O)c3ccc(-c4ccc5nccc(C(=O)NCC(=O)N6CCC[C@H]6C(=O)c6nc7ccccc7o6)c5c4)cc3)CC2)CCN(CC(=O)O)CC1 [drawing 354]
,,7.8,<6,8.6,,O=C(O)CN1CCN(CC(=O)O)CCN(CC(=O)N2CCN(CCNC(=O)c3cccc(-c4ccc5nccc(C(=O)NCC(=O)N6CCC[C@H]6C(=O)c6nc7ccccc7o6)c5c4)c3)CC2)CCN(CC(=O)O)CC1 [drawing 353]
,,8.6,<6,8.5,,O=C(O)CN1CCN(CC(=O)O)CCN(CC(=O)N2CCN(CCCOc3ccc4nccc(C(=O)NCC(=O)N5CCC[C@H]5C(=O)c5nc6ccccc6o5)c4c3)CC2)CCN(CC(=O)O)CC1 [drawing 357]
